Test results taken from ChEMBL document CHEMBL3507680, “University of Dundee, Gates Library screen for HepG2 cell viability”.

Assay: Human HepG2 cell viability assay in 384 well format
Assay type: toxicity, cell-based
Design: dose 125 nL, time 70.5 hour; cytotoxicity at 70.5 h: concentration not given beside the values
Settings: HepG2 cells, read-out: Inhibition

SMILES	cytotoxicity at 70.5 h
COc1ccc(CN2CC[C@@H](O)[C@@H]2Cc2ccccc2)cc1	38.7%
CN(Cc1n[nH]c(=O)n1Cc1ccco1)S(C)(=O)=O	2.27%
CC(C)(C)S(=O)(=O)c1ccc(N2CCC(n3cccn3)CC2)cn1	6.49%
CCn1cc(NC(=O)NCCN2CCc3ccccc3C2)cn1	4.14%
Cc1noc(C)c1CN(C)C(=O)c1cnc(C2CC2)nc1O	8.69%
Cc1nc(N2CCN(C(=O)c3cccnc3)CC2)cc(-n2cccc2)n1	4.9%
O=S(=O)(c1cccnc1)N1C[C@@H]2CC[C@H](C1)N(Cc1ccccn1)C2	-5.11%
CCn1c(CN2CCCC2)nnc1C1CCN(Cc2ccccn2)CC1	18.4%
CN1CCCC(C(=O)N2CCC(Oc3ccccn3)CC2)C1 (configuration not stated)	-7.47%
CCn1c(C2CCNCC2)nn(Cc2ccc(C(=O)NC)o2)c1=O	-12.2%
CCCOCC1CCN(C(=O)Cn2ncc(N3CCCC3)cc2=O)C1 (configuration not stated)	26.8%
O=C(NC1CC1)c1ccnc(N2CCOC(c3ccc(Cl)c(Cl)c3)C2)c1 (configuration not stated)	9.19%
Cc1cc(CN(C)C(=O)c2cccc(N3CCCS3(=O)=O)c2)no1	-12.6%
O=C(CCS(=O)(=O)c1ccccc1)NCCCn1cccn1	-16.1%
COc1ccc(C)cc1CC(=O)N1CCN(CC(C)O)CC1 (configuration not stated)	-5.05%
CSc1ccc(NCC(=O)NCC(=O)N2CCCC2)cc1F	-2.3%
COC(=O)CCNC(=O)c1cccc(C(=O)N(C)c2ccccc2)c1	31.4%
COc1ccc(F)cc1C(=O)N1C[C@H]2CC[C@@H]1CN(c1ncccn1)C2	-9.41%
C[C@@H]1CN(C(=O)CCN2CCOCC2)CC[C@]1(C)O	-2.33%
Cc1ccnc(NC(=O)C2CCN(CCCc3cn[nH]c3)CC2)c1	-14.2%
CN(C)c1ccccc1CN1CCCC(N2CCCC2=O)C1 (configuration not stated)	-8.7%
Cc1cc(CN2C[C@@H]3COC[C@H](C(=O)N4CCCCO4)[C@@H]3C2)no1	-11.3%
COCC(=O)N1CCC2(CC1)C(=O)N(Cc1cccnc1)CCN2C	28.3%

SMILES	cytotoxicity at 70.5 h
Cc1ccc(-c2nc(CNCC3CN(C)CCO3)co2)cc1 (configuration not stated)	-2.95%
Cc1ccc(CN2CCn3c(C(=O)N(C)C)cnc3C2)cc1	2.94%
CC(C)[C@@H]1CN(C(=O)CN(C)Cc2ccc(F)cc2)C[C@H]1C(=O)O	-1.04%
CCOc1ccc(CN(C)C(C)C(=O)Nc2cc(C)no2)cc1 (configuration not stated)	-5.64%
Cc1nsc(NC(=O)NC2CCCOC2)n1 (configuration not stated)	23%
CCn1ccnc1CN1CCCN(C(=O)c2ccc(C#N)cc2)CC1	0.738%
CCC(C)n1cnc(S(=O)(=O)N(C)C)c1 (configuration not stated)	14.5%
COc1cccc(CNC(=O)c2cc(C)nc(N3CCCCC3)n2)c1	-9.69%
Cc1nc(C(=O)N2CCOCC2)cc(N2CCC(C(N)=O)CC2)n1	-0.347%
CN(CC1CCOC1)S(=O)(=O)c1cccc(C(=O)N2CCOCC2)c1 (configuration not stated)	-4.27%
CCOc1ccc(NC(=O)Cc2cc(C)[nH]n2)cc1CO	-7.67%
COc1cccc(CN2CCCC3(CCN(C(=O)c4ccco4)C3)C2)c1 (configuration not stated)	-8.94%
CCOc1ccccc1CN1CCc2nc3ccsc3c(=O)n2CC1	-7.1%
CCNc1cc2c(nn1)CCN(C(=O)C(C)c1c(C)noc1C)C2 (configuration not stated)	-4.66%
Cc1cccc(N(C)S(=O)(=O)c2cc(C(=O)O)cs2)c1	14.1%
CCC(=O)NC(CC)c1ccccc1C (configuration not stated)	-5.25%
COc1cccc2c1OCC(C(=O)NCCc1nnc(C)s1)C2 (configuration not stated)	8.68%
Cc1ccsc1[C@@H]1CCN(C(=O)c2cc3ccccc3[nH]2)C[C@H]1O	0.623%
Cc1nnsc1C(=O)N1CC[C@H](c2ccccc2)[C@@H]2[C@H]1CCCCN2C	-3.09%
CN1CCC(c2nnc3n2CCN(S(=O)(=O)c2ccccc2)C3)CC1	-5.15%
Cn1cc(N2CCC3(CCCN(Cc4ccc(F)cc4)C3)C2=O)cn1 (configuration not stated)	-12.2%
CC(C(N)=O)N1CCN(c2ncc(Br)cn2)CC1 (configuration not stated)	0.267%
CSCC(=O)N[C@H]1CN(CC2CCOCC2)C[C@@H]1c1ccccc1	-4.95%

SMILES	cytotoxicity at 70.5 h
CC(C)n1ncc2c1NC(=O)C(C#N)C21CCCC1 (configuration not stated)	-11.3%
Cc1cccc(=O)n1CCCNc1ncnc2c1CCNCC2	-6.31%
CC(=O)N1CCO[C@@H]2CN(Cc3ccccc3F)C[C@@H]2C1	-5.88%
Cc1n[nH]c(C)c1NC(=O)CN1CCn2c(nnc2C(C)C)C1	-7.95%
O=C(NCC(F)(F)F)C1CN(C(=O)c2cnccn2)C1	-9.42%
Cc1cnn(CCNCc2ccc(F)cc2Cl)c1	-10.2%
COCc1noc(Cc2cc(Cl)c3c(c2)OCCCO3)n1	-4.84%
CCOCCCNC(=O)c1nn(CC)cc1Br	25.1%
CN(C)C(=O)CC1CC2(CCN(CC3CC3)CC2)c2cc(F)ccc21 (configuration not stated)	35.7%
CC(C(=O)Nc1ccnn1C(C)C)N1CCN(Cc2ccccc2)CC1 (configuration not stated)	-7.81%
COCCC(=O)NCCc1nc2cc(-c3ccc(OC)cc3)ncn2n1	-6.53%
Cn1nc(CN2CCCC2)c2c1CN(C(=O)c1cnccn1)CC2	-1.41%
CC(=O)c1cnc(NCCCN2CCOCC2)nc1C	14.7%
COCCC(=O)N1C[C@@H](O)[C@H](N2CCN(c3ccccc3)CC2)C1	-2.33%
Cc1cc(C)cc(CNC(C)c2c(C)nn(C)c2C)c1 (configuration not stated)	-13.1%
Cc1cc(NC(=O)CN2CCn3c(nnc3-c3ccccc3)C2)no1	-1.17%
Cc1cc(C)c(CNC(=O)NC(C)c2ccc3c(c2)CCC3)c(=O)[nH]1 (configuration not stated)	25.3%
O=C(NCc1ccnc(C2CCCOC2)n1)c1cccs1 (configuration not stated)	14.1%
CN(CCc1cn[nH]c1)Cc1nc(Cc2cccc(F)c2)no1	19%
Cc1cc(N(C)C)nc(C2COCCN2Cc2csc(C)n2)n1 (configuration not stated)	10.4%
CCNC(=O)C(C)(C)NC(=O)NCc1cccc(Br)c1	-8.53%
CN(C)C(=O)COC[C@]12COC[C@H]1CN(C1CCCC1)C2	-8.08%
Cn1cccc1C(=O)NCc1cn2c(n1)CN(CC1CCOCC1)CC2	-78.7%

SMILES	cytotoxicity at 70.5 h
CNC(=O)C1CCN(C(=O)c2coc(COc3ccc(OC)cc3)n2)C1 (configuration not stated)	-2.27%
COc1ccc(C(=O)NCCN2CCC(c3cccs3)CC2)cc1OC	0.337%
Cc1nn(C(C)(C)C)c(C)c1C(=O)NCC1(C(N)=O)CCOCC1	-8.76%
CCN1C(=O)C(c2ccccc2)CC12CCN(S(C)(=O)=O)CC2 (configuration not stated)	-9.88%
Cc1ccc(N2CCC3(CN(Cc4cccs4)CCC3(F)F)C2)nn1 (configuration not stated)	-7.32%
CC(C)n1cnc2c1C(C(=O)NCCC#N)N(Cc1ccccc1)CC2 (configuration not stated)	-16.7%
CC(C)(O)CCc1ccc(C(=O)N2CCN(CCS(C)(=O)=O)CC2)cc1	0.886%
Cn1cc(C[C@H]2[C@H](O)CCN2Cc2ccc3c(c2)OCO3)cn1	6.92%
Cn1ccc(CN2CC(Cc3nccc4cc[nH]c34)C2)n1	-4.79%
CC(=O)NC1CCCN(C(=O)Nc2nnc(C(C)C)s2)C1 (configuration not stated)	0.76%
CCn1nccc1CN(C)c1[nH]cnc2nc(C)nc1-2	-5.53%
CN(C)c1cnnc(N2CCN(C(=O)CCC3CCCCC3)CC2)c1	-7.83%
OCc1ccc(Cl)c(NCc2cccnc2)c1	19.4%
Cc1cc(C)c(CNC(=O)C(C)Oc2ccccc2F)c(=O)[nH]1 (configuration not stated)	2.57%
Cc1cc(C2CCCN2C(=O)CN2CC3(CCNCC3)OC2=O)on1 (configuration not stated)	-5.06%
CC(C)N1CCCC(CNC(=O)CN(C)S(=O)(=O)c2ccccc2)C1 (configuration not stated)	-5.65%
O=C(c1ncccn1)N1CCC[C@]2(C[C@@H](Oc3ncccc3F)CO2)C1	21.8%
CC(=O)N1CC(C(=O)NCCc2ncc(C)s2)C1	-5.34%
CCn1nc(C)c(CNC(=O)C2COc3ccccc3C2)c1C (configuration not stated)	-8.01%
CC(C)c1nccc(C2CC(=O)Nc3n[nH]c(C4CCC4)c32)n1 (configuration not stated)	2.19%
Cn1cncc1-c1nnc([C@H]2CCN(Cc3cccnc3)C2)o1	-2.71%
COCCN1C(=O)C[C@@H]2[C@H]1CCN2C(=O)c1ccc[nH]1	-5.24%
CCc1cn[nH]c1C1CCCN(C(=O)c2ncoc2C(C)C)C1 (configuration not stated)	-2.87%

SMILES	cytotoxicity at 70.5 h
Cn1nnc2c1C(COCc1ccccn1)CN(Cc1ccoc1)C2 (configuration not stated)	-12.1%
CCNC(=O)C1CCN(c2cc(-c3ccccc3)nc3cc(C)nn23)C1 (configuration not stated)	-2.31%
Cc1cc(NCCc2nnc(N)s2)nc(-c2ccccc2)n1	-2.76%
COCC(C)NC(=O)CSc1ccc(F)c(Cl)c1 (configuration not stated)	12%
COCC(=O)N1CCN(C)CC(Cc2cc(N(C)C)ncn2)C1 (configuration not stated)	-3.09%
CNC(=O)[C@@H]1[C@@H](c2ccccc2)CN2CCN(Cc3ccco3)C[C@H]12	23.2%
CC(NC(=O)N1CCCN(Cc2cccs2)CC1)c1cccnc1 (configuration not stated)	-16.5%
Cc1cccc2c1nc1n2[C@@H](CNC(=O)c2ccncc2)COC1	-3.38%
CS(=O)(=O)N1CCC2(CC1)CN(CCn1cccn1)C(=O)CO2	8.7%
Cc1oc(-c2ccco2)nc1CC(=O)N1CCN(CC(C)O)CC1 (configuration not stated)	11.6%
CCN(Cc1nc(C)no1)C(=O)C1CC(=O)N(Cc2ccccn2)C1 (configuration not stated)	-13.9%
Cc1ccccc1CNC(Cn1cncn1)c1ccccc1 (configuration not stated)	1.75%
COc1cc(C(=O)O)cc(I)c1OCC(=O)NCCc1ccccc1	-4.57%
Cc1ccc(C(O)CN(C)Cc2cnn(C)c2)cc1C (configuration not stated)	-1.99%
CCc1nn(C)c(Cl)c1CN1CCC(Cc2nncn2C)CC1	-3.75%
COCCN1C[C@H]2CN(Cc3cccc(OC)c3)CCN2C1=O	-7.25%
CC(C)N1CCOCC2(CN(Cc3ccco3)CCO2)C1 (configuration not stated)	-8.16%
CC(C)c1ccc(C#N)c(N2CC(C)(C)[C@@](C)(O)C2)n1	-17.8%
Cc1cnn(CC2CCCN2Cc2nc(C)c3ccccc3n2)c1 (configuration not stated)	1.46%
CC(C)NC(=O)N1CCC2(CC1)CC[C@@]1(C(=O)N(C)C)CN(C)C[C@@H]21	-11.9%
